Reference: publication PMC4311625, “Structural determinants for binding to angiotensin converting enzyme 2 (ACE2) and angiotensin receptors 1 and 2” (Frontiers in Pharmacology, 2015)
Ends that are not written are not given here.

Key:
AT2R = experiment: Whole cell competition binding with [125I]-Ang II, AT2R-transfected HEK-293 cells; conditions: relative binding, displacement of 125I-Ang II in AT2R-transfected HEK-293 cells; 100 nM (Table 6)
Procedure: The generation of plasmids expressing HA-tagged versions of the AT1R and AT2R have been previously described [Qian et al. (1999)], [D’Amore et al. (2005)]. HEK-293 cells in 12 well-plates were transfected with either AT1R or AT2R plasmids (0.6 μg/well) using lipofectAMINE (4⋅8 μl/well), as previously described [Thomas et al. (1998)] and stably expressing clones obtained by selection with G418 (1 mg/ml) and limiting dilution. HEK clones expressing either AT1R or AT2R were plated in 12 well-plates for whole cell competition binding assays using the non-selective Ang II ligand, [^125I]-Ang II and selected concentrations of Ang II, PD123319 (an AT2-selective ligand) and the various β-substituted Ang II peptides. Non-linear regression of the data was achieved using GraphPad Prism (GraphPad Software Inc., San Diego, CA, USA) to determine relative displacement of chimeric Ang II analogs as compared to ^125I-Ang II in either AT1R- or AT2R- transfected HEK-293 cells.

ACE2 [1] = target: T1, ACE2 (Homo sapiens, UniProt Q9BYF1); experiment: ACE2 quenched fluorescence substrate (QFS) inhibition assay; type: biochemical; conditions: QFS assay, pH 6.5, 37 °C, 1 h, value ± spread; for Inhibition (%) of ACE2, AngII chimeras, 100 μM: peptide 100 μM
Procedure: Angiotensin converting enzyme 2 QFS assays were performed for 1 h in 50 uM QFS, 1 M NaCl, 100 mM Tris-Cl, pH 6.5 at 37∘C on a BMG LabTechnologies (Offenburg, Germany), FLUOStar Optima in a 96 well-plate. Subsequent data analysis determined the inhibition of native AngII, its analogs and C-terminal peptides compared to the ACE2 QFS substrate [MCA-APK(DNP)-OH, [Vickers et al., 2002]]. […] Three controls were included in each ACE2 QFS assay; AngII (100 and 10 μM), IHPF (100 μM) and a known ACE2 inhibitor (1 nM; Millennium Pharmaceuticals, Cambridge, MA, USA). QFS assay results were accepted when ACE2 inhibition by AngII (10 μM) was 80 ± 5%, IHPF was 65 ± –5% and the ([Qian et al., 1999]) ‘Millennium Inhibitor’ was 70 ± –5%. Acceptable coefficients of variation (CV; standard deviation/mean × 100) for sample triplicates were <7%.
A library of 40 tetrapeptides based on the four C-terminal residues of Ang II (Ile-His-Pro-Phe/IHPF) was generated and screened for ACE2 binding at 100 μM in order to identify key residues of the C-terminus of Ang II involved in binding to the ACE2 active site. […] Several substitutions (Val, Tyr, Ala, Gly, Phe, Trp, Pro, His, Ile, and Leu) were made in order to further probe the highly hydrophobic and cyclic specificity of the C-terminus of Ang II. A β-napthalene amino acid (Nth) derivative was used as a highly hydrophobic non-natural cyclic residue substitute, and Arg and Lys were substituted for histidine at the second position from the N-terminus of the tetrapeptide to determine if positive charge or other structural or positional requirements were important.

ACE2 [2] = target: T1, ACE2; experiment: LC–MS ACE2 proteolytic cleavage assay; type: in vitro ADME; conditions: for Cleavage (%) by ACE2, 10 μM: peptide 10 μM incubated with ACE2 at 37 °C; for Cleavage (%) by ACE2, 10 μM / Cleavage (%) by ACE2, 100 μM: typically 4-5 h (5 h); for Cleavage (%) by ACE2, 100 μM: peptide 100 μM incubated with ACE2 at 37 °C
Procedure: The first hour of the incubation was performed in the Fluorostar Optima plate reader in order to confirm previously observed level of inhibition, then for the remaining time the samples were transferred to small microfuge tubes and incubated in a water bath. The extent of ACE2 cleavage was assessed by LC–MS on an Agilent capillary HP1100, MSD VL3000 Ion-Trap system.

AT1R = target: T2, AT1R (Rattus norvegicus, UniProt P25095); experiment: Whole cell competition binding with [125I]-Ang II, AT1R-transfected HEK-293 cells; conditions: relative binding, displacement of 125I-Ang II in AT1R-transfected HEK-293 cells; 100 nM (Table 6)
T2 construct: HA; expressed in transfected cells
T2 sequence (P25095 1-359): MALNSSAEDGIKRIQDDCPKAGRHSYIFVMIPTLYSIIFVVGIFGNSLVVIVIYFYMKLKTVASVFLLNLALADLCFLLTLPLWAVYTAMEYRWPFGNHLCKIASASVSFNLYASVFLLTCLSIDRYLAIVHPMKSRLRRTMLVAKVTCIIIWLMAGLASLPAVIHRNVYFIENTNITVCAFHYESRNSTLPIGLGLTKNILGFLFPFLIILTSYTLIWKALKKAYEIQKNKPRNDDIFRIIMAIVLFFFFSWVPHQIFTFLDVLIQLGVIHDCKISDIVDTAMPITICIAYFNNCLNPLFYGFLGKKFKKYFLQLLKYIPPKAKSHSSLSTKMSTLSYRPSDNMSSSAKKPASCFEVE
Procedure: The generation of plasmids expressing HA-tagged versions of the AT1R and AT2R have been previously described [Qian et al. (1999)], [D’Amore et al. (2005)]. HEK-293 cells in 12 well-plates were transfected with either AT1R or AT2R plasmids (0.6 μg/well) using lipofectAMINE (4⋅8 μl/well), as previously described [Thomas et al. (1998)] and stably expressing clones obtained by selection with G418 (1 mg/ml) and limiting dilution.

T1 sequence (Q9BYF1 18-805, species assumed): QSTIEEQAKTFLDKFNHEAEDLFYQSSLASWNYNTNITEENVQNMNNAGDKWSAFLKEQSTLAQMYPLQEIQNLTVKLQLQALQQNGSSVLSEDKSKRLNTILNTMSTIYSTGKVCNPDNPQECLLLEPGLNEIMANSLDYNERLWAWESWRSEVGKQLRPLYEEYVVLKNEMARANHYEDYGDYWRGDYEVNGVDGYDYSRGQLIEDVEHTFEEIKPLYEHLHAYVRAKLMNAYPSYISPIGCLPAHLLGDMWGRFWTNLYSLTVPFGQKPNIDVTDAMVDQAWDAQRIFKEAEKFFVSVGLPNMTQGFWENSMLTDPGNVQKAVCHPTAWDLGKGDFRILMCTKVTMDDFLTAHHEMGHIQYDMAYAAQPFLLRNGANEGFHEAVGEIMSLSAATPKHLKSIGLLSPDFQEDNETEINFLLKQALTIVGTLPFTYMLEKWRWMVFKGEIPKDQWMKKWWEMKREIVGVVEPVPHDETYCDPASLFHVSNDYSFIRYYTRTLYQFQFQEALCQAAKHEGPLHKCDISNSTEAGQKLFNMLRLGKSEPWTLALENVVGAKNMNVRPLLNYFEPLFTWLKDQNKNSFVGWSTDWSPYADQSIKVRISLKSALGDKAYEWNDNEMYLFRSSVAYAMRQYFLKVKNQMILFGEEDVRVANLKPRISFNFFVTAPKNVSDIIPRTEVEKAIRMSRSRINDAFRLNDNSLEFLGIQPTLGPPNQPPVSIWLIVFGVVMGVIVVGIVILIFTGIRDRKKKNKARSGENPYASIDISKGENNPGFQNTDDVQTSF

| Substance | Inhibition (%) of ACE2, AngII chimeras, 1 μM (ACE2 [1]; peptide 1 μM) | Inhibition (%) of ACE2, AngII chimeras, 10 μM (ACE2 [1]; peptide 10 μM) | Inhibition (%) of ACE2, AngII chimeras, 10 μM (ACE2 [1]; peptide 10 μM, listed as DRVYI YPβF) [%] | Inhibition (%) of ACE2, AngII chimeras, 100 μM (ACE2 [1]) [%] | Cleavage (%) by ACE2, 10 μM (ACE2 [2]; LC–MS) [%] | Cleavage (%) by ACE2, 100 μM (ACE2 [2]; LC–MS, listed as DRVYI YPβF) [%] | AT1R binding (%) (AT1R) | Cleavage (%) by ACE2, 100 μM (ACE2 [2]; LC–MS, listed as DRVYI YβPF) [%] | Cleavage (%) by ACE2, 100 μM (ACE2 [2]; LC–MS, listed as DRVY VYβPF) [%] | AT2R binding (%) (AT2R) | Cleavage (%) by ACE2, 100 μM (ACE2 [2]; LC–MS) | inhibition at 0.1 µM (ACE2 [1]; peptide 0.1 μM, read-out: Inhibition (%) of ACE2, AngII chimeras, 0.1 μM) [%] | inhibition at 1 µM (ACE2 [1]; peptide 1 μM, read-out: Inhibition (%) of ACE2, AngII chimeras, 1 μM) [%] | inhibition at 10 µM (ACE2 [1]; peptide 10 μM, read-out: Inhibition (%) of ACE2, AngII chimeras, 10 μM) [%] | fold less cleavage by ACE2 compared to native Ang II (ACE2 [2]; 10 μM, over 5 h) | Cleavage (%) by ACE2, 1 μM (ACE2 [2]; peptide 1 μM incubated with ACE2 at 37 °C, typically 4-5 h, LC–MS) [%] |
| --- | --- | --- | --- | --- | --- | --- | --- | --- | --- | --- | --- | --- | --- | --- | --- | --- |
| DRVYVYPF |  |  |  |  | 9 ± 0.3 |  |  |  |  |  |  | 31 ± 3.5 | 84 ± 2.7 | 98 ± 0.3 | approximately 4 fold | 64 |
| DRVYVYβPF | 0 ± 11.4% | 42 ± 4.4% |  | 90 ± 0.6 | 0 ± 0 |  | 0 |  | 0 ± 0 | 75 | complete resistance to proteolytic cleavage |  |  |  |  |  |

The next lines start with results.

| Inhibition (%) of ACE2, AngII chimeras, 1 μM (ACE2 [1]; peptide 1 μM) | Inhibition (%) of ACE2, AngII chimeras, 10 μM (ACE2 [1]; peptide 10 μM) | Inhibition (%) of ACE2, AngII chimeras, 10 μM (ACE2 [1]; peptide 10 μM, listed as DRVYI YPβF) [%] | Inhibition (%) of ACE2, AngII chimeras, 100 μM (ACE2 [1]) [%] | Cleavage (%) by ACE2, 10 μM (ACE2 [2]; LC–MS) [%] | Cleavage (%) by ACE2, 100 μM (ACE2 [2]; LC–MS, listed as DRVYI YPβF) [%] | AT1R binding (%) (AT1R) | Cleavage (%) by ACE2, 100 μM (ACE2 [2]; LC–MS, listed as DRVYI YβPF) [%] | Cleavage (%) by ACE2, 100 μM (ACE2 [2]; LC–MS, listed as DRVY VYβPF) [%] | Substance | AT2R binding (%) (AT2R) | Cleavage (%) by ACE2, 100 μM (ACE2 [2]; LC–MS) | inhibition at 0.1 µM (ACE2 [1]; peptide 0.1 μM, read-out: Inhibition (%) of ACE2, AngII chimeras, 0.1 μM) [%] | inhibition at 1 µM (ACE2 [1]; peptide 1 μM, read-out: Inhibition (%) of ACE2, AngII chimeras, 1 μM) [%] | inhibition at 10 µM (ACE2 [1]; peptide 10 μM, read-out: Inhibition (%) of ACE2, AngII chimeras, 10 μM) [%] | fold less cleavage by ACE2 compared to native Ang II (ACE2 [2]; 10 μM, over 5 h) | Cleavage (%) by ACE2, 1 μM (ACE2 [2]; peptide 1 μM incubated with ACE2 at 37 °C, typically 4-5 h, LC–MS) [%] |
| --- | --- | --- | --- | --- | --- | --- | --- | --- | --- | --- | --- | --- | --- | --- | --- | --- |
| –1 ± 6.8% | completely abolished | 0 ± 5 | 53 ± 1.9 | 0 ± 0 | 0 ± 0 | 30 |  |  | DRVYIYPβF | 25 | complete resistance to proteolytic cleavage |  |  |  |  |  |
| –4 ± 9.8% | 10 ± 5.8% |  | 72 ± 1.5 | 0 ± 0 |  | 0 | 0 ± 0 |  | DRVYIYβPF | 80 | complete resistance to proteolytic cleavage |  |  |  |  |  |
| 2 ± 3.6% | 15 ± 9% |  | 59 ± 2.1 |  |  | 0 |  |  | DRVYVYPβF | 25 | complete resistance to proteolytic cleavage |  |  |  |  |  |
